Experimental data from patent publication US20260364184A1, “COMPOUND BASED ON OXOISOINDOLINYL-SUBSTITUTED TETRAHYDROPYRIMIDINE-DIONE AND USE THEREOF” (GLUETACS THERAPEUTICS (SHANGHAI) CO., LTD., priority 2023, published 2026).

Legend:
Assay type in all cases: cell-based
ALK = target: T1, ALK (Homo sapiens, UniProt Q9UM73); experiment: Western blot degradation of ALK; conditions: H2228 Cell; 24 hours
T1 construct: known EML4-ALK variant 3 fusion, ALK kinase part unmutated), Western blot
Experimental: (§1) Conventional Western blot assay was performed to evaluate the effects of the compounds of the present disclosure on the expression of target proteins in cells.
(§2) (1) Cell Seeding and Protein Harvesting: The selected cells were processed according to the cell seeding procedure and protein harvesting procedure in Table II-2.
(§3) (2) To the collected supernatant, 5×SDS sample loading buffer was added, followed by denaturation at 95 °C for 5 minutes. The denatured samples were then separated by SDS-PAGE electrophoresis on a polyacrylamide gel. Proteins were transferred to a nitrocellulose membrane (0.45 μm NC membrane), blocked with blocking buffer at room temperature for 1 hour, and subjected to antibody incubation and development procedures according to the antibody manufacturer's instructions (Cell Signaling Technology).
(§4) Half-Maximal Degradation Concentration value (the drug concentration required for degrading proteins by 50%, abbreviated as DC50) reads method: comparing the grayscale values of Western blot bands from drug-treated samples with those from blank DMSO-treated controls, and identifying the drug concentration range at which the grayscale value is half that of the DMSO-treated control bands.
(§5) DC50 values can be calculated using ImageJ software to measure grayscale values of Western blot bands from drug-treated samples. The concentration-response curve is fitted to estimate the drug concentration corresponding to half the grayscale value.
(§6) Target protein remaining (%) refers to the percentage of target protein remaining in cells after treatment with protein degrader compounds.
(§7) Calculation method for target protein remaining (%): Use ImageJ software to measure grayscale values of Western blot bands from drug (protein degrader)-treated samples. The grayscale value of drug-treated bands is divided by that of internal control protein bands, and the resulting quotient is normalized to obtain the relative percentage of remaining target protein after protein degrader treatment.
(§8) Target protein degradation rate (%)=1−target protein remaining (%).

[1] = system: Human acute lymphocytic leukemia T lymphocytes cell line (CCRF-CEM); experiment: Inhibition of CCRF-CEM cell proliferation (CellTiter luminescent viability); conditions: Table IF2, AR inhibitor-based; for inhibition at 0.01 µM / inhibition at 0.5 µM: Homo sapiens, 96 h; for inhibition at 0.01 µM: read-out: Inhibition Rate at 10 nM (%); for inhibition at 0.5 µM: 500 nM, read-out: Inhibition Rate at 500 nM (%)
AR = target: T2, AR (Homo sapiens, UniProt P10275); experiment: Western blot degradation of AR; conditions: LnCap Cell; 24 hours
T2 construct: expression of target proteins in cells; endogenous in cells
T2 sequence (P10275 1-920): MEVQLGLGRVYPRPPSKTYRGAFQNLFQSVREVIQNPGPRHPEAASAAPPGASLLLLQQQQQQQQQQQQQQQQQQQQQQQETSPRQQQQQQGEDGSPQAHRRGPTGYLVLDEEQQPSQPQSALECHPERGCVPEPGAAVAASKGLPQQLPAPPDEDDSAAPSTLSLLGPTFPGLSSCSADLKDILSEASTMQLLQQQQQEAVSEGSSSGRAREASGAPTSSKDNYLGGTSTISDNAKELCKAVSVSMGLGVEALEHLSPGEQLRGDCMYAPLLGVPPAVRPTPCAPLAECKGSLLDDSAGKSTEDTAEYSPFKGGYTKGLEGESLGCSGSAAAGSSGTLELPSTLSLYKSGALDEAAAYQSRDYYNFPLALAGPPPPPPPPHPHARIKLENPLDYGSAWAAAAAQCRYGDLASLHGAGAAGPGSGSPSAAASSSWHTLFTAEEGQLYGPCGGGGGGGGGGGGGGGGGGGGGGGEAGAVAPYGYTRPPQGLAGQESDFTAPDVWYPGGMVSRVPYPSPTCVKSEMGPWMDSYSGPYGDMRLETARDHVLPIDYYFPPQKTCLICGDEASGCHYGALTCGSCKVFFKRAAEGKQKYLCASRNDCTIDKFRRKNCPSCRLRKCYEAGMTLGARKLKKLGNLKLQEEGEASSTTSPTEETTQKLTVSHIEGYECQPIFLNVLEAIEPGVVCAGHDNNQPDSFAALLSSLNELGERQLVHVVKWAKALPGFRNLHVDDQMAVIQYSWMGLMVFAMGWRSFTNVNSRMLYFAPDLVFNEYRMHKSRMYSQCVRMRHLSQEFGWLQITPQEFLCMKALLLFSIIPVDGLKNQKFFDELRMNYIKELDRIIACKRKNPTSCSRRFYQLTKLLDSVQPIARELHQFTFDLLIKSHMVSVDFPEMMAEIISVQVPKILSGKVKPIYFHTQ
Experimental: as §1, §2, §3, §4, §5, §6, §7, §8

[2] = system: Human diffuse large B-cell lymphoma cell line (TMD8); experiment: Inhibition of TMD8 cell proliferation (CellTiter luminescent viability); conditions: Table IF1, AR inhibitor-based; for inhibition at 0.01 µM / inhibition at 0.5 µM: Homo sapiens, TMD8, 96 h; for inhibition at 0.01 µM: read-out: Inhibition Rate at 10 nM (%); for inhibition at 0.5 µM: TMD8, 500 nM, read-out: Inhibition Rate at 500 nM (%)
[3] = system: Human T lymphocytic leukemia cell line (Jurkat); experiment: Inhibition of Jurkat cell proliferation (CellTiter luminescent viability); conditions: Homo sapiens, Table IF3, AR inhibitor-based, 96 hours; for inhibition at 0.01 µM: 10 nM, read-out: Inhibition Rate at 10 nM (%); for inhibition at 0.5 µM: 500 nM, read-out: Inhibition Rate at 500 nM (%)
Experimental: The tumor cells used herein were cultured in a cell culture medium listed in table 3 at 37 °C in an incubator with 5% CO2. Prior to experimentation, all cell lines used were correctly identified by STR profiling, and tested negative for mycoplasma contamination using a mycoplasma detection kit through routine screenings.
The IC50 values of the compounds of the present disclosure (including the compounds in Table 1, Table 2, and Examples 1-468) were determined using the CellTiter-Meiluncell Luminescent Cell Viability Assay Kit from Dalian Meilun Biotech Co., Ltd. The detailed procedure is as follows: Tumor cells were seeded in 96-well cell culture plates at the densities specified in Table 4. On the following day, the test compounds of the present disclosure were subjected to serial dilution. The dilution can be performed according to one of the following two methods: • (1) The first dilution method: The test compounds of the present disclosure (including the compounds in Table 1, Table 2, and Examples 1-468) were subjected to 5-fold serial dilutions starting from a highest concentration of 2000 μM, resulting in a total of 9 concentrations from high to low (2000, 400, 80, 16, 3.2, 0.64, 0.128, 0.0256, 0.00512 μM). Subsequently, 0.5 μL of the test compound dilution was transferred into the 96-well plate containing the cells, with each well containing 100 μL of cell culture medium. […] Into the 96-well plate, the diluted test compounds and corresponding detection reagents were added, resulting in final test compound concentrations of 500 nM and 10 nM, respectively. The experimental procedure is described below using the diluted 2 μM test compound as an example.
0.5 μL of the aforementioned diluted compound of the present disclosure (including the compounds in Table 1, Table 2, and Examples 1-468) was added to the seeded cells in 100 μL of medium, yielding a final test compound concentration of 10 nM. After the cells were treated with the compounds of the present disclosure for a specified period, the cell viability assay reagent was added to the culture medium according to the kit's instructions to determine cell viability. […] All controls were treated using the same procedure as the compounds of the present disclosure. The growth inhibition curves for the compounds of the present disclosure were plotted using Prism GraphPad software, and the IC50 values were calculated therefrom.

T1 sequence (Q9UM73 19-1620): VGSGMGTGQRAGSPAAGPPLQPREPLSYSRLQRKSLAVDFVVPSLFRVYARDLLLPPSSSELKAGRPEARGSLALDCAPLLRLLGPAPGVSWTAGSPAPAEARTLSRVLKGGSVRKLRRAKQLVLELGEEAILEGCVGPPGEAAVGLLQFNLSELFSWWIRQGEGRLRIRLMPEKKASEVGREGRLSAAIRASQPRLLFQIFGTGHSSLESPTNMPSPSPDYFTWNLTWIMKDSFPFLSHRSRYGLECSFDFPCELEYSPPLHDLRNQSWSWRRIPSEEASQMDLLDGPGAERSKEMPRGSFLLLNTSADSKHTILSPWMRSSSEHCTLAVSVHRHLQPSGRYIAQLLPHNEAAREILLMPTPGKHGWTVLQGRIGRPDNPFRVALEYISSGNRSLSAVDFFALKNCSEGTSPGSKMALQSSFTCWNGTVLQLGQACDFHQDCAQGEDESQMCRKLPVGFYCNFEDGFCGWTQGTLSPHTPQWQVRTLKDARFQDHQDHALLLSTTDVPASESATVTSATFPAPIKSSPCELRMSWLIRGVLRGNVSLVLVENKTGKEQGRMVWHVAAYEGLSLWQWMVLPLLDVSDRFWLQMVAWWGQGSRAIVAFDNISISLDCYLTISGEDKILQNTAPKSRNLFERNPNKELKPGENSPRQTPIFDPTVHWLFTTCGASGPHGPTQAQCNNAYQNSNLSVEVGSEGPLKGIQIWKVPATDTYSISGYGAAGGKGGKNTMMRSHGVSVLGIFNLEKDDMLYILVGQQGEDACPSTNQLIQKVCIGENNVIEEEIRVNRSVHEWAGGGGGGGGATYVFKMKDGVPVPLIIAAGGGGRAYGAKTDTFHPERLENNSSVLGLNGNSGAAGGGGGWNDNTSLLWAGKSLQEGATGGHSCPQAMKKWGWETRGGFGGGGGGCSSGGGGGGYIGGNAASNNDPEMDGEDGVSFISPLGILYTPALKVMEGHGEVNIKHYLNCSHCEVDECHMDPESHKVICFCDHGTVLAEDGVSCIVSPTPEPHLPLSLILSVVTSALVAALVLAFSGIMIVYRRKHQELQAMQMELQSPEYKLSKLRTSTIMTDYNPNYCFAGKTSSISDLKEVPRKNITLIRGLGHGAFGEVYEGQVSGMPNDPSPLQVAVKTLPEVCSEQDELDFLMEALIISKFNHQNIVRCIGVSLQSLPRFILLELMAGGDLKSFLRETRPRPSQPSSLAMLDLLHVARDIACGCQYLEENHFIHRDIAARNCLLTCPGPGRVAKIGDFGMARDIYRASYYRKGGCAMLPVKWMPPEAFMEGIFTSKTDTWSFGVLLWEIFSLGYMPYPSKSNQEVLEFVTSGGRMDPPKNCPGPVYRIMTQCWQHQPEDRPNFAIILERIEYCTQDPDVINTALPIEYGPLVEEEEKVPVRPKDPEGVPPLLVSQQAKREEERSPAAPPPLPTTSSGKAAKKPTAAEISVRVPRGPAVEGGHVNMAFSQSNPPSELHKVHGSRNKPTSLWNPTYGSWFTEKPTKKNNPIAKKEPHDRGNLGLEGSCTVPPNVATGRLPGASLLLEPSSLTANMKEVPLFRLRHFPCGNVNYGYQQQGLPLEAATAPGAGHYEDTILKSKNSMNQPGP
T1 sequence (Q96SW2 whole entry partner, the tested form may be a part): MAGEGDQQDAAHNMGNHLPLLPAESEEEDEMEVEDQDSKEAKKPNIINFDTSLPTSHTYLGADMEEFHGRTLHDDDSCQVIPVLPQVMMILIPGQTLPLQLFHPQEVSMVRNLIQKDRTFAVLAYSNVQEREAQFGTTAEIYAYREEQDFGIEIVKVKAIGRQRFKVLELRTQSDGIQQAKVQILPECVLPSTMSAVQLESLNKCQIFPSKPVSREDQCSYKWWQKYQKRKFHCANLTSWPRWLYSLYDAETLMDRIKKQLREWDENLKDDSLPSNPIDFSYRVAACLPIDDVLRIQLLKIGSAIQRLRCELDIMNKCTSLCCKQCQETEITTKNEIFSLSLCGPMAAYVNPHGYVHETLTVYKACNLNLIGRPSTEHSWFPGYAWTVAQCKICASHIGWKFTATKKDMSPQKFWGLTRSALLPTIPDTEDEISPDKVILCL

SMILES | Degradation of substrate protein ALK (substrate protein remaining %) (ALK) | inhibition at 0.01 µM ([1]; 10 nM) [%] | inhibition at 0.5 µM [1] [%] | Degradation of substrate protein AR (substrate protein remaining %) (AR) | inhibition at 0.01 µM ([2]; TMD8, 10 nM) [%] | inhibition at 0.5 µM [2] [%] | inhibition at 0.01 µM [3] [%] | inhibition at 0.5 µM [3] [%] | Inhibition Rate at 10 nM (%) ([1]; 10 nM, 96 hours, 0.01 µM) | Inhibition Rate at 10 nM (%) ([2]; TMD8, 10 nM, 96 hours, 0.01 µM)
COc1cc(N2CCC(CN3CC4CCC(C3)N4c3ccc4c(c3)C(=O)N(N3CCC(=O)NC3=O)C4=O)CC2)ccc1Nc1ncc(Cl)c(Nc2ccccc2P(C)(C)=O)n1 [GT-08530, 5-(3-((1-(4-((5-chloro-4-((2-(dimethylphosphoryl)phenyl)amino)pyrimidin-2-yl)amino)-3-methoxyphenyl)piperidin-4-yl)methyl)-3,8-diazabicyclo[3.2.1]octan-8-yl)-2-(2,4-dioxotetrahydropyrimidin-1(2H)-yl)isoindoline-1,3-dione] | A (0%≤substrate protein remaining %≤80%) | – | – | – | – | – | – | – | – | –
CC1(C)[C@H](NC(=O)c2ccc(N3CCC(CN4CC5CCC(C4)N5c4ccc5c(c4)C(=O)N(N4CCC(=O)NC4=O)C5=O)CC3)nc2)C(C)(C)[C@H]1Oc1ccc(C#N)c(Cl)c1 [GT-05305, N-((1r,3r)-3-(3-chloro-4-cyanophenoxy)-2,2,4,4-tetramethylcyclobutyl)-6-(4-((8-(2-(2,4-dioxotetrahydropyrimidin-1(2H)-yl)-1,3-dioxoisoindolin-5-yl)-3,8-diazabicyclo[3.2.1]octan-3-yl)methyl)piperidin-1-yl)nicotinamide] | – | 20 to 30 | 40 to 60 | A (0%≤substrate protein remaining %≤80%) | 25 to 30 | 40 to 60 | 10 to 15 | 40 to 60 | – | –
CC1(C)[C@H](NC(=O)c2ccc(N3CCC(CN4C5CCC4CN(c4ccc6c(c4)C(=O)N(N4CCC(=O)NC4=O)C6=O)C5)CC3)nc2)C(C)(C)[C@H]1Oc1ccc(C#N)c(Cl)c1 [GT-05826, N-((1r,3r)-3-(3-chloro-4-cyanophenoxy)-2,2,4,4-tetramethylcyclobutyl)-6-(4-((3-(2-(2,4-dioxotetrahydropyrimidin-1(2H)-yl)-1,3-dioxoisoindolin-5-yl)-3,8-diazabicyclo[3.2.1]octan-8-yl)methyl)piperidin-1-yl)nicotinamide] | – | 20 to 30 | 40 to 60 | A (0%≤substrate protein remaining %≤80%) | 25 to 30 | 40 to 60 | 20 to 30 | 40 to 60 | – | –
COc1cc(N2CCC(N(C)Cc3ccc4c(c3)C(=O)N(N3CCC(=O)NC3=O)C4=O)CC2)ccc1Nc1ncc(Cl)c(Nc2ccccc2P(C)(C)=O)n1 [GT-04660, 5-(((1-(4-((5-chloro-4-((2-(dimethylphosphoryl)phenyl)amino)pyrimidin-2-yl)amino)-3-methoxyphenyl)piperidin-4-yl)(methyl)amino)methyl)-2-(2,4-dioxotetrahydropyrimidin-1(2H)-yl)isoindoline-1,3-dione] | A (0%≤substrate protein remaining %≤80%) | – | – | – | – | – | – | – | – | –
CC1(C)[C@H](NC(=O)c2ccc(N3CCC(CN4CCN(c5cc(F)c6c(c5)C(=O)N(N5CCC(=O)NC5=O)C6=O)CC4)CC3)nc2)C(C)(C)[C@H]1Oc1ccc(C#N)c(Cl)c1 [GT-05346, N-((1r,3r)-3-(3-chloro-4-cyanophenoxy)-2,2,4,4-tetramethylcyclobutyl)-6-(4-((4-(2-(2,4-dioxotetrahydropyrimidin-1(2H)-yl)-7-fluoro-1,3-dioxoisoindolin-5-yl)piperazin-1-yl)methyl)piperidin-1-yl)nicotinamide] | – | 15 to 20 | 20 to 30 | A (0%≤substrate protein remaining %≤80%) | 15 to 20 | 35 to 40 | 0 to 5 | 20 to 30 | – | –
CC1(C)[C@H](NC(=O)c2ccc(N3CCC(CN4CCN(c5ccc6c(c5)C(=O)N(N5CCC(=O)NC5=O)C6=O)CC4)CC3)nc2)C(C)(C)[C@H]1Oc1ccc(C#N)c(Cl)c1 [GT-05301, N-((1r,3r)-3-(3-chloro-4-cyanophenoxy)-2,2,4,4-tetramethylcyclobutyl)-6-(4-((4-(2-(2,4-dioxotetrahydropyrimidin-1(2H)-yl)-1,3-dioxoisoindolin-5-yl)piperazin-1-yl)methyl)piperidin-1-yl)nicotinamide] | – | – | 30 to 40 | A (0%≤substrate protein remaining %≤80%) | – | 40 to 60 | 10 to 15 | 20 to 30 | IFb5 (15% ≤ IFb5 < 20%) | IFa6 (25% ≤ IFa6 < 30%)
CC1(C)[C@H](NC(=O)c2ccc(N3CCC(CN4C5CC4CN(c4ccc6c(c4)C(=O)N(N4CCC(=O)NC4=O)C6=O)C5)CC3)nc2)C(C)(C)[C@H]1Oc1ccc(C#N)c(Cl)c1 [GT-05823, N-((1r,3r)-3-(3-chloro-4-cyanophenoxy)-2,2,4,4-tetramethylcyclobutyl)-6-(4-((3-(2-(2,4-dioxotetrahydropyrimidin-1(2H)-yl)-1,3-dioxoisoindolin-5-yl)-3,6-diazabicyclo[3.1.1]heptan-6-yl)methyl)piperidin-1-yl)nicotinamide] | – | 5 to 10 | 20 to 30 | A (0%≤substrate protein remaining %≤80%) | 10 to 15 | 35 to 40 | 5 to 10 | 20 to 30 | – | –
